# Measurements from paper PMC6017214, “Rational Design of a New Class of Toll-Like Receptor 4 (TLR4) Tryptamine Related Agonists by Means of the Structure- and Ligand-Based Virtual Screening for Vaccine Adjuvant Discovery” (Molecules : A Journal of Synthetic Chemistry and Natural …, 2018).
# How the values were obtained:
# [1] = test system: CHO-K1 (Chinese hamster ovary); assay: MTT cytotoxicity assay; type: cell-based; conditions: Cricetulus griseus, CHO-K1 cells, 24 h exposure, mean of 2–3 independent measurements, read-out: IC50 and SEM
# Method: The toxicity was estimated on the cell cultures in order to exclude the most toxic motifs from further development and to test whether the compounds might be used in the functional cell-model of TLR4. Standard MTT assay (Sigma Aldrich, Damrstadt, Germany) was applied according to the manufacturer’s protocol on the CHO-K1 (Chinese hamster ovary, ECACC, Salisbury, UK).
# The IC50 values were calculated from the control-subtracted triplicates using non-linear regression (four parameters) of GraphPad Prism 5 software (GraphPad Software, La Jolla, CA, USA). Final IC50 and SEM value was obtained as a mean of 2–3 independent measurements (see Table 3).
# Standard MTT assay (Sigma Aldrich, Darmstadt, Germany) was applied according to the manufacturer’s protocol on the CHO-K1 (Chinese hamster ovary, ECACC, Salisbury, UK) in order to compare the effect of different compound within the series. The cells were cultured according to ECACC recommended conditions and seeded in a density of 8000 per well. […] Cells were exposed to the tested compounds for 24 h. Then the medium was replaced by a medium containing 10 μM of MTT and cells were allowed to produce formazan for another approximately 3 h under surveillance. Thereafter, medium with MTT was sucked out and crystals of formazan were dissolved in DMSO (100 µL). Cell viability was assessed spectrophotometrically by the amount of formazan produced. Absorbance was measured at 570 nm with 650 nm reference wavelength on Synergy HT (BioTek, Winooski, VT, USA). IC50 was then calculated from the control—subtracted triplicates using non-linear regression (four parameters) of GraphPad Prism 5 software (GraphPad Software, La Jolla, CA, USA). Final IC50 and SEM value was obtained as a mean of 2–3 independent measurements.
# [2] = Stability of the solid compounds (observation); type: physicochemical; conditions: solid state
# [3] = test system: human Periferal blood mononuclear cells (PBMCs); assay: Ex vivo stimulation of IL-6 production (ELISA); type: cell-based; conditions: 24 h; for c (IL-6 production): 10 µM of each compound (MPLA 10 μM, LPS-RS 100 ng/mL), ELISA, dash = no IL-6 production found; for ability to elicit IL-6 production (in words): 10 µM
# Excerpt: Important factor in adjuvants development is wheter the compounds are capable to elicit immune response not only on reporter cells but on real immunocompetent cels. We have chosen ex vivo study on human Periferal blood mononuclear cells (PBMCs) to evaluate the ability to produce an interleukin 6 (IL-6). […] We have collected the blood samples from healthy donors. From those blood samples we had harvested PBMCs by standard protocol using Histopaque 1077 density gradient. PBMC specimens were frozen and kept in liquid nitrogen. The cells were incubated for 24 h with 10 µM (10% of lowest cytotoxic IC50—see the Section 2.5 and Section 2.6) of each compound and the ability to elicit IL-6 production was assessed. Synthetic MPLA (MPLAs) in equimolar concentration (10 μM) was used as a positive control and LPS from Rhodobacter sphaeroides 100 ng/mL (LPS-RS) as a negative control. IL-6 production was quantified by ELISA commercial kit (Sigma Aldrich) and results were interpreted by GraphPad Prism using Nonlinear Fit of RIA data function. […] Effect on other pro-inflamatory cytokines (e.g., IL-1) was not determined in this study and will be subject of ongoing study in order to explain discrepancy among in silico, in vitro and ex vivo findings. Furthermore study evaluating the influence of compounds on Th1/Th2/Th17 bias will be needed to thoroughly assess their adjuvant and immunomodulating potential. Nevertheless, despite such necesarry and laborious tasks novel TLR4 agonists and potential vaccine adjuvants have been found.
# PBMCs was obtained by standard protocol using Histopaque 1077 gradient from whole blood of healthy donors. Cells were seeded at 25,000 cells per well and incubated for 24 h with final concentration 10 µM of each compound in triplicate (n = 3). After 24 h 100 µL of supernatant was collected from each well and level of IL-6 was determined by human IL-6 ELISA kit obtained from Sigma Aldrich (Darmstadt, Germany). Absorbance was measured at 450 nm wavelength on Synergy HT (BioTek). Level of IL-6 was calculated from standard curve using RIA nonlinear plot in Graph Pad Prism 6.
# [4] = target: T1, Recombinant hTRL4/MD2 complex (Homo sapiens, UniProt O00206+Q9Y6Y9); assay: Surface plasmon resonance direct binding (Biacore T200)
# T1 construct: purchased R&D Systems
# Method: To shed light on the prediction capabilities of vHTPS, direct binding of the best compound from the in vitro study (17) to the hTRL4/MD2 complex was investigated through Biospecific Interaction Analysis using the SPR-based biosensor Biacore T200 (GE Healthcare, Little Chalfont, UK).
# Compound 17 was further analyzed using a series of concentrations from 6.25 up to 200 μM (binary dilution).
# Surface plasmon resonance (SPR) experiments methodology was adapted from experiments by Svajger et al.. The experiments were performed using a Biacore T200 (GE Healthcare, Little Chalfont, UK) instrument equipped with a Series S—CM5 sensor chip (GE Healthcare). Dulbecco’s PBS supplied with 0.05% tween 20 and DMSO was used for immobilization of the protein. Recombinant human hTLR4/MD2 (R&D Systems, Minneapolis, MN, USA) was attached to the surface of the chip by amine coupling. The surface of flow cells 1 and 2 was initially activated with a 10-min pulse of a 1:1 mixture of 0.4 M 1-ethyl-3-(3-dimethylaminopropyl)-carbodiimide hydrochloride and 0.1 M N-hydroxysuccinimide, according to manufacturer recommendations. TLR4 was diluted into 10 mM sodium acetate buffer, pH 5.5, to a final concentration of 200 μg/mL, and injected twice for 600 s over the second flow cell. Both flow cells were blocked with a 10-min pulse of 1.0 M ethanolamine pH 8.5. The final capacity level was about 8000 RU. Analysis was performad in the running buffer consisting of Dulbecco’s PBS (10 mM Na2HPO4, 2 mM KH2PO4, 137 mM NaCl, 2 mM KCl, pH 7.4) supplemented with 1% DMSO (Sigma Aldrich, Darmstadt, Germany) and […]. All of the three hits from the cell-based assays were tested at two different concentrations: 20 μM and 200 μM. Each compound was injected for 1 min at a flow-rate of 30 μL/min, and the dissociation was monitored for 30 s. Regeneration was not needed, although 30 s of buffer-flow was used to stabilize the surface after each injection. […] We used the following concentrations for titration: 0, 6.25, 12.5, 25, 50, 100 and 200 μM.
# hTLR4/MD2 receptor = target: T2, hTLR4/MD2 receptor (Homo sapiens, UniProt O00206+Q9Y6Y9); assay: In vitro hTLR4/MD2 activity assessment in HEK-Blue-hTLR4 reporter cells (SEAP); type: cell-based; conditions: 10 µM, 16 h, relative to MPLA at same concentration, n = 3
# T2 construct: host or cells: HEK-Blue-hTLR4 cells
# Method: Aliquots of 20 µL of each compound was added into the well containing 25000 HEK-Blue™-hTLR4 cells (Invivogen, Toulouse, France) and the final concentration of compound in each well was 10 µM. Each concentration was evaluated in triplicate. Synthetic MPLAs (Invivogen) of the same concentration was used as positive control, apyrogenous saline F1 (BBraun, Prague, Czech Republic) was used as negative control. Plates were incubated overnight for 16 h at 37 °C 5% CO2. After the incubation 20 μL aliquots of supernatant were collected and mixed with 200 μL of SEAP detection media (QuantiBlue™, Invivogen) and incubated for 2 h at 37 °C 5% CO2. Absorbance of the solution was measured at 630 nm and activity of each compound expressed as a percentage of an activity of the MPLA of respective concentration was determined (n = 3).
# T1 sequence (O00206 24-631 limits assumed): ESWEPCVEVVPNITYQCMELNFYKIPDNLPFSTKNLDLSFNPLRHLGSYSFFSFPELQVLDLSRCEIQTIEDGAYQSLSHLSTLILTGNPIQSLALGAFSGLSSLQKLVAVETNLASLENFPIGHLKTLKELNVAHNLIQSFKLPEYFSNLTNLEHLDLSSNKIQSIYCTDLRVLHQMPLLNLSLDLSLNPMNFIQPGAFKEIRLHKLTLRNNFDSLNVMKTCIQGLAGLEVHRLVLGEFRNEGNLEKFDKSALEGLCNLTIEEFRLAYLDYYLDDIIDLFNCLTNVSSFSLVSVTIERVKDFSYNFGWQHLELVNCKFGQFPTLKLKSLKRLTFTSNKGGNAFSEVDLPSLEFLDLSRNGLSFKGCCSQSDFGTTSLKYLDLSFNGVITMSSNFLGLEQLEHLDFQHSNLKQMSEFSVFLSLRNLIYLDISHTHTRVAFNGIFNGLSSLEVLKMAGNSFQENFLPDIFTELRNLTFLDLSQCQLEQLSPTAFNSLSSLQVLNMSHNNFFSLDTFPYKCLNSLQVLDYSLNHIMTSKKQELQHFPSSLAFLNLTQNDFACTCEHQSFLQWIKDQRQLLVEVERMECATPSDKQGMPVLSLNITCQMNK
# T1 sequence (Q9Y6Y9 17-160 limits assumed): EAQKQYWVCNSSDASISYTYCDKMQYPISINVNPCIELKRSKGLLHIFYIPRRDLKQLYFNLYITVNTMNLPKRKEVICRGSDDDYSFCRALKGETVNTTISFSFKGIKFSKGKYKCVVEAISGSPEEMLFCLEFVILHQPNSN
# T2 sequence (O00206 24-839): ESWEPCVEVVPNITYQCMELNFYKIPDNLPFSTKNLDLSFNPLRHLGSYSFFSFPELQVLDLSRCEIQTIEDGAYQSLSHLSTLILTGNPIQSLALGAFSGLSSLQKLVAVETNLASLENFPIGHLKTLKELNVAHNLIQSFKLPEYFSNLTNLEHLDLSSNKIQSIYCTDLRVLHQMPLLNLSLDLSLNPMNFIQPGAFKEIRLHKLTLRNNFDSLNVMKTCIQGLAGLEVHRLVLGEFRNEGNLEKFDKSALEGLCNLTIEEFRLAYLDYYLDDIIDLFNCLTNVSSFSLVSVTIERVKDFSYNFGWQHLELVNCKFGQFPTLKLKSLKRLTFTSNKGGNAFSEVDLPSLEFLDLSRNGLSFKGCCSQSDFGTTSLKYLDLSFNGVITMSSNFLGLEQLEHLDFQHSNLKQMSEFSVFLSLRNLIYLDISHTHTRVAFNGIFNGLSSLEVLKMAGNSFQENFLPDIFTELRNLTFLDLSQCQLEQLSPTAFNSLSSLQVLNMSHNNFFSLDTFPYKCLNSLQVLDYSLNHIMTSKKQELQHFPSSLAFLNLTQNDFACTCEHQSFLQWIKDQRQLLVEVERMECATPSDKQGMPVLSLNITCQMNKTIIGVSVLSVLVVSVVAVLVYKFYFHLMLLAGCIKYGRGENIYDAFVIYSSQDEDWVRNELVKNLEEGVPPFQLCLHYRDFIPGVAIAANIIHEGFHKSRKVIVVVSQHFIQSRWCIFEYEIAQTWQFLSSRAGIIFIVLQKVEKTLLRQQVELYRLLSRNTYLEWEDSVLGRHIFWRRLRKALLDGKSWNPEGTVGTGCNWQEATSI
# T2 sequence (Q9Y6Y9 17-160 limits assumed): as the sequence (Q9Y6Y9 17-160 limits assumed) above
melting point [°C],Molecule,IC50 [1] [µM],other results
193.2 to 195,"O=C(NCCc1c[nH]c2ccccc12)c1ccc2ccccc2c1 [Compound 19, N-(2-(1H-Indol-3-yl)ethyl)-2-naphthamide]",155 ± 12,–
112.4 to 113.9,"O=C(NCCc1c[nH]c2ccccc12)c1ccc(Cl)c(Cl)c1 [Compound 18, N-(2-(1H-Indol-3-yl)ethyl)-3,4-dichlorobenzamide]",892 ± 122,–
88.4 to 90.4,"O=C(NCCc1c[nH]c2ccccc12)C1CCCCCC1 [Compound 24, N-(2-(1H-Indol-3-yl)ethyl)cycloheptanecarboxamide]",170 ± 10,stability of the compound (in words) [2]: unwanted degradations from crystals to amorphous state
137 to 139,"O=C(NCCc1c[nH]c2ccccc12)c1ccc2c(c1)CCCC2 [Compound 23, N-(2-(1H-Indol-3-yl)ethyl)-5,6,7,8-tetrahydronaphthalene-2-carboxamide]",98 ± 6,–
–,"Monophosphoryl lipid A [MPLA, reference compound]",–,c (IL-6 production) [3]: 3078.97 pg/mL
45.1 to 47.1,"CC(C)CCC(=O)NCCc1c[nH]c2ccccc12 [Compound 25, N-(2-(1H-Indol-3-yl)ethyl)-4-methylpentanamide]",348 ± 35,stability of the compound (in words) [2]: unwanted degradations from crystals to amorphous state
132.8 to 134.3,"COc1ccc(C(=O)NCCc2c[nH]c3ccccc23)cc1 [Compound 16, N-(2-(1H-Indol-3-yl)ethyl)-4-methoxybenzamide]",200 ± 7,–
104.8 to 106.3,"O=C(NCCc1c[nH]c2ccccc12)C1CCCCC1 [Compound 20, N-(2-(1H-Indol-3-yl)ethyl)cyclohexanecarboxamide]",211 ± 43,–
–,"Cc1ccc(C(=O)NCCc2c[nH]c3ccccc23)cc1 [Compound 15, N-(2-(1H-Indol-3-yl)ethyl)-4-methylbenzamide]",197 ± 41,–
–,"O=C(NCCc1c[nH]c2ccccc12)c1ccc(Cl)cc1 [Compound 17, N-(2-(1H-Indol-3-yl)ethyl)-4-chlorobenzamide]",201 ± 8,"dissociation (SPR, in words) ([4]; 6.25 up to 200 μM): rapid dissociation rates; Kd ([4]; SPR, immobilized hTRL4/MD2, 6.25 up to 200 μM): 0.747 µM; direct binding to the hTRL4/MD2 complex (SPR, in words) ([4]; immobilized recombinant hTRL4/MD2): direct binding to the hTRL4/MD2 complex was confirmed; activity of MPLA (hTLR4/MD2 agonist activity normalized to MPLA) (hTLR4/MD2 receptor): more than 20%; ability to elicit IL-6 production (in words) [3]: did not shown any effect"
123.2 to 125.2,"O=C(NCCc1c[nH]c2ccccc12)C1CCc2ccccc2C1 (stereo not drawn) [Compound 22, N-(2-(1H-Indol-3-yl)ethyl)-1,2,3,4-tetrahydronaphthalene-2-carboxamide]",128 ± 8,activity of MPLA (hTLR4/MD2 agonist activity normalized to MPLA) (hTLR4/MD2 receptor): ~10%; ability to elicit IL-6 production (in words) [3]: significantly induce production of IL-6; c (IL-6 production) [3]: 147.64 pg/mL
–,"O=C(NCCc1c[nH]c2ccccc12)c1ccccc1 [Compound 14, N-(2-(1H-Indol-3-yl)ethyl)benzamide]",297 ± 17,ability to elicit IL-6 production (in words) [3]: significantly induce production of IL-6; c (IL-6 production) [3]: 53.501 pg/mL
164.5 to 166.5,"O=C(NCCc1c[nH]c2ccccc12)c1cccc2ccccc12 [Compound 21, N-(2-(1H-Indol-3-yl)ethyl)-1-naphthamide]",–,–
